Measurements reported in ChEMBL document CHEMBL4311969, “Polygala tenuifolia-Acori tatarinowii herbal pair as an inspiration for substituted cinnamic α-asaronol esters: Design, synthesis, anticonvulsant activity, and inhibition of lactate dehydrogenase study” (Eur J Med Chem, 2019).
Where “and” joins values, the source holds several entries; their conditions need not be identical. Equal values may be shown once. Calls of active or inactive are those of the source. The rule behind the calls is not given here.

Key:
[1] = system: Mus musculus; test: Anticonvulsant activity in Kunming mouse assessed as MES-induced hind limb extension at 100 mg/kg, ip administered 0. 5 to 4 hrs before MES stimulation relative to control; type: functional
[2] = system: Mus musculus; test: Anticonvulsant activity in Kunming mouse assessed as MES-induced hind limb extension at 100 mg/kg, ip administered 0. 5 to 2 hrs before MES stimulation; type: functional, organism-based
[3] = species: Homo sapiens; test: Inhibition of human LDH1 at 0.5 mM using sodium pyruvate as substrate by UV-VIS spectrophotometry method relative to control
[4] = species: Homo sapiens; test: Inhibition of human LDH5 at 0.5 mM using sodium pyruvate as substrate by UV-VIS spectrophotometry method relative to control
[5] = Neurotoxicity against Kunming mouse assessed as time remained in rod at 100 mg/kg, ip administered 0.5 to 2 hrs by rotarod test; type: toxicity, organism-based; conditions: in vivo
[6] = Drug metabolism in Sprague-Dawley rat assessed as retention time by HPLC/MS analysis; type: ADME
[7] = system: Mus musculus; test: Anticonvulsant activity in Kunming mouse assessed as MES-induced hind limb extension at 100 mg/kg, ip administered 3 hrs before MES stimulation; type: functional, organism-based
[8] = Neurotoxicity against ip dosed Kunming mouse assessed as time remained in rod measured at 0.5 hrs by rotarod test; type: toxicity, organism-based; conditions: in vivo
[9] = system: Mus musculus; test: […] activity in ip dosed Kunming mouse assessed as reduction in formalin-induced paw licking administered 0.5 hrs before formalin stimulation; type: functional
[10] = (§1) Protective index, ratio of TD50 for neurotoxicity against ip dosed Kunming mouse assessed as time remained in rod measured at 0.5 hrs by rotarod test to ED50 for […] activity in ip dosed Kunming mouse assessed as reduction in formalin-induced paw licking administered 0.5 hrs before formalin stimulation; type: toxicity, organism-based; conditions: in vivo, read-out: PI
[11] = system: Mus musculus; test: Anticonvulsant activity in ip dosed Kunming mouse assessed as reduction in ScPTZ-induced seizure administered 0.5 hrs before ScPTZ stimulation; type: functional
[12] = system: Mus musculus; test: Anticonvulsant activity in ip dosed Kunming mouse assessed as MES-induced hind limb extension administered 0.5 hrs before MES stimulation; type: functional
[13] = as §1, with “ScPTZ-induced seizure” for “formalin-induced paw licking”, “ScPTZ” for “formalin”; type: toxicity, organism-based; conditions: in vivo, read-out: PI
[14] = system: Mus musculus; test: Anticonvulsant activity in Kunming mouse assessed as reduction in ScPTZ-induced seizure at 300 mg/kg, ip administered 0.25 to 2 hrs before ScPTZ stimulation relative to control; type: functional; set-up: scale not given: the % may be the effect or the level left
[15] = system: Mus musculus; test: Anticonvulsant activity in Kunming mouse assessed as reduction in Sc3-MP-induced tonic seizure rate at 300 mg/kg, ip administered 0.5 hrs before Sc3-MP stimulation relative to control; type: functional; set-up: scale not given: the % may be the effect or the level left
[16] = as §1, with “Sc3-MP-induced seizure” for “formalin-induced paw licking”, “Sc3-MP” for “formalin”; type: toxicity, organism-based; conditions: in vivo, read-out: PI
[17] = Protective index, ratio of TD50 for neurotoxicity against ip dosed Kunming mouse assessed as time remained in rod measured at 0.5 hrs by rotarod test to ED50 for anticonvulsant activity in ip dosed Kunming mouse assessed as MES-induced hind limb extension administered 0.5 hrs; type: toxicity, organism-based; conditions: in vivo, read-out: PI
[18] = system: Mus musculus; test: Anticonvulsant activity in Kunming mouse assessed as reduction in ScPTZ-induced tonic seizure rate at 100 mg/kg, ip administered 0.5 hrs before ScPTZ stimulation relative to control; type: functional; set-up: scale not given: the % may be the effect or the level left
[19] = system: Mus musculus; test: Anticonvulsant activity in Kunming mouse assessed as reduction in ScPTZ-induced tonic seizure rate at 300 mg/kg, ip administered 0.5 hrs before ScPTZ stimulation relative to control; type: functional; set-up: scale not given: the % may be the effect or the level left
[20] = system: Mus musculus; test: Anticonvulsant activity in Kunming mouse assessed as reduction in ScPTZ-induced clonic seizure at 100 mg/kg, ip administered 0.5 hrs before ScPTZ stimulation relative to control; type: functional; set-up: scale not given: the % may be the effect or the level left
[21] = system: Mus musculus; test: Anticonvulsant activity in Kunming mouse assessed as reduction in ScPTZ-induced mortality rate at 300 mg/kg, ip administered 0.5 hrs before ScPTZ stimulation relative to control; type: functional; set-up: scale not given: the % may be the effect or the level left
[22] = system: Mus musculus; test: Anticonvulsant activity in Kunming mouse assessed as reduction in Sc3-MP-induced seizure ip dosed measured at 0.5 hrs before Sc3-MP stimulation; type: functional
[23] = system: Mus musculus; test: Anticonvulsant activity in Kunming mouse assessed as MES-induced hind limb extension at 50 mg/kg, ip administered 0.5 and 2 hrs before MES stimulation relative to control; type: functional
[24] = system: Mus musculus; test: Anticonvulsant activity in Kunming mouse assessed as reduction in ScPTZ-induced clonic seizure at 300 mg/kg, ip administered 0.5 hrs before ScPTZ stimulation relative to control; type: functional; set-up: scale not given: the % may be the effect or the level left
[25] = system: Mus musculus; test: Anticonvulsant activity in Kunming mouse assessed as reduction in Sc3-MP-induced clonic seizure rate at 300 mg/kg, ip administered 0.5 hrs before Sc3-MP stimulation relative to control; type: functional; set-up: scale not given: the % may be the effect or the level left
[26] = system: Mus musculus; test: Anticonvulsant activity in Kunming mouse assessed as reduction in ScPTZ-induced seizure at 100 mg/kg, ip administered 0.25 to 2 hrs before ScPTZ stimulation relative to control; type: functional

SMILES	Activity [1]	Activity [2]	inhibition [3]	inhibition [4]	Activity [5]	Activity [7]	also measured
COc1cc(OC)c(OC)cc1/C=C/COC(=O)/C=C/c1cccc(Cl)c1	25 - 100%	Active	< 5%	< 9%	Non-Toxic		
COc1cc(OC)c(OC)c(OC)c1/C=C/C(=O)O							Retention_time [6]: 81.4 min
COc1cc(OC)c(OC)cc1/C=C/COC(=O)/C=C/c1cccc(OC)c1OC	25 - 100%	Active	inactive	inactive	Non-Toxic	Active	
COc1cc(OC)c(OC)cc1/C=C/COC(=O)/C=C/c1cccc(F)c1	25 - 100%	Active	< 5%	< 9%	Non-Toxic	Active	
COc1cc(OC)c(OC)cc1/C=C/COC(=O)/C=C/c1cccc(C(F)(F)F)c1	inactive	Active	< 5%	< 9%	Non-Toxic		
COc1ccc(OC)c(/C=C/C(=O)OC/C=C/c2cc(OC)c(OC)cc2OC)c1	25 - 100%	Active			Non-Toxic	Active	
COc1cc(OC)c(OC)cc1/C=C/COC(=O)/C=C/c1ccc(C(F)(F)F)cc1	25 - 100%	Active	< 5%	< 9%	Non-Toxic		
COc1cc(OC)c(OC)cc1/C=C/C(=O)O[C@@H]1O[C@H](C(=O)O)[C@@H](O)[C@H](O)[C@H]1O							Retention_time [6]: 50.1 min
COC[C@@H](NC(C)=O)C(=O)NCc1ccccc1 [LACOSAMIDE]							TD50 at 0.5 h [8]: 135 µmol/kg; ED50 [9]: 15 mg/kg and 0.1 µmol/kg; selectivity ratio at 0.5 h [10]: 2.2; ED50 [11]: > 500 mg/kg and > 2000 µmol/kg; ED50 [12]: 37.6 µmol/kg and 9.4 mg/kg; selectivity ratio at 0.5 h [13]: < 0.1
COc1cc(OC)c(OC)c(OC)c1/C=C/C(=O)O[C@@H]1O[C@H](C(=O)O)[C@@H](O)[C@H](O)[C@H]1O							Retention_time [6]: 55.2 min
COc1cc(OC)c(OC)cc1/C=C/CNC(=O)/C=C/c1cc(OC)c(OC)c(OC)c1	25 - 100%	Active	< 5%	9%	Non-Toxic		
COc1cc(OC)c(OC)cc1/C=C/COC(=O)/C=C/c1ccccc1C(F)(F)F	25 - 100%	Active	< 5%	< 9%	Non-Toxic	Active	Activity [14]: 50%; Activity [15]: 75%; selectivity ratio at 0.5 h [16]: 3.3; selectivity ratio at 0.5 h [17]: > 11.7; TD50 at 0.5 h [8]: > 2370 µmol/kg and > 1000 mg/kg; ED50 [9]: 123 mg/kg and 291 µmol/kg; Activity [18]: 100%; selectivity ratio at 0.5 h [10]: > 8.1; Activity [19]: 50%; ED50 [11]: > 200 mg/kg and > 474 µmol/kg; Activity [20]: 100%; Activity [21]: 0%; ED50 [22]: > 300 mg/kg and > 710 µmol/kg; ED50 [12]: 85.7 mg/kg and 203 µmol/kg; Activity [23]: inactive; Activity [24]: 100%; Activity [25]: 100%; Activity [26]: inactive; selectivity ratio at 0.5 h [13]: 5
